Experimental data: patent publication US20050227978A1, “Fibrosis inhibitor” (Sumitomo Pharmaceuticals Co., Ltd., priority 2002, published 2005)

Legend:
TGF-β = assay: Effects on the extracellular matrix (proteoglycan) production by TGF-β in NRK-49F fibroblasts; format: cell-based; details: Rattus norvegicus, NRK-49F cells, 3 ng/ml TGF-β, [35S]-proteoglycan radioactivity, 24 hours, read-out: TGF-β inhibitory rate (%); for inhibition at 3 µM: test compound 3 μM; for inhibition at 10 µM: test compound 10 μM
Method: Effects on the Extracellular Matrix Production by TGF-β
The effect of the compounds of Examples on the production of proteoglycan when TGF-β was added to fibroblast was evaluated.
NRK-49F cells (rat fibroblast) were cultured in Dulbecco's Modified Eagle Medium (DMEM: manufactured by GIBCO) containing 10% bovine serum, and used in this experiment. The cells were put into a 96-well plate in an amount of 2.5×10^4 cells/100 μl/well. On the next day, the medium in the plate was exchanged to the DMEM medium containing 3 ng/ml of TGF-β (manufactured by Nacalai Tesque, Inc.), 0.5 μCi/well of [^35S]-Na2SO4, and a test compound. Twenty-four hours thereafter, the supernatant was collected, and subjected to SDS-polyacrylamide gel electrophoresis (SDS-PAGE) in a conventional manner. The gel after electrophoresis was dried with a gel drier, and exposed to an imaging plate, which was analyzed with BSA2000 (manufactured by Fuji Photo Film). The radioactivity of proteoglycan to be electrophoresed was measured, and the TGF-β inhibitory rate was calculated by the following equation. TGF-β Inhibitory rate (%)=(A−B)×100/(A−C) • A: Radioactivity in the presence of TGF-β without a test compound • B: Radioactivity in the presence of TGF-β and a test compound • C: Radioactivity in the absence of TGF-β and a test compound

[1] = test system: rat Thy-1 nephritis model; assay: Evaluation using rat Thy-1 nephritis model (kidney fibrosis); format: in vivo; details: 7 days
Method: The anti-fibrosis activity was evaluated on the compounds of Examples 9, 14, 110, 120 and 136 by using a rat Thy-1 nephritis model, which is an animal model for kidney fibrosis (cf., “Kidney and Dialysis”, vol. 31, p. 343-347 (1991)). Thy-1 is one of the surface antigens of thymocyte.
Male Wister rats were purchased from Charles River Japan, Inc. at an age of 3-weeks old. After pre-feeding, the animals were used in this experiment when their body weights became about 100 g. The animals were kept in a room being controlled at a temperature of 24±2° C. under a humidity of 55±10%, with an illumination cycle of light on (8:00 to 20:00). The animals were given solid diet pellets (CRF-1, Oriental Yeast Co. Ltd.) and sterilized tap water ad libitum.
Anti-Thy-1 monoclonal antibody (OX-7, Biosource International Inc.) was administered to the rats at a dose of 50 μg/100 g of body weight at the tail vein. Then, the animals were grouped into the vehicle-treated group (n=8) and the test compound-treated group (n=8) with respect to the body weight. From the day of administration of anti-Thy-1 monoclonal antibody, a test compound, which was suspended in a 0.5% carboxymethylcellulose (vehicle), […] To the vehicle-treated group, a vehicle was administered likewise.
After the administration for 7 days, the right kidney of the rats was taken out, and the content of hydroxyproline therein, which was an index for organ fibrosis, was measured according to the method of J. F. Woessner, et al. (Arch. Biochem. Biophys. Vol. 93 p440 (1961)). That is, the kidney was homogenized, and 500 μL of the suspension was dried, and thereto was added a 4N aqueous sodium hydroxide solution (225 μL). The mixture was heated on a heat block at 100° C. for 15 minutes to hydrolyze proteins, and the mixture was neutralized with a 1.4 M aqueous citric acid solution (275 μL). The mixture was centrifuged at 3000 rpm for 10 minutes at room temperature, and the supernatant was collected as a kidney extract. To the extract were added Chloramine T solution and an Ehrlich solution (which was prepared by adding n-propanol (31 ml) to p-dimethylaminobenzaldehyde (7.5 g), and further slowly adding thereto a 60% perchloric acid (13 mL), and followed by adjusting the volume to 50 ml by distilled water), and the mixture was reacted at 65° C. for 15 minutes. The OD 550 (absorbance at 550 nm) was measured, and the concentration of hydroxyproline was calculated from the analytical curve of hydroxyproline. The content of hydroxyproline thus obtained was adjusted with respect to the protein amount in the kidney extract.
Each value was expressed in average value±standard deviation of 8 animals in each group.

## Cc1ccc(C(=O)c2cccn2Cc2cnc3ccccc3c2)c(O)c1 [Example 85]
TGF-β
  inhibition at 3 µM: 29%
  inhibition at 10 µM: 75%

## Cc1ccc(C(=O)c2c(C)ccn2Cc2cnc3ccccc3c2)cc1 [Example 108]
TGF-β
  inhibition at 3 µM: 42%
  inhibition at 10 µM: 56%

## COc1ccc(C(=O)c2cccn2Cc2cnc3ccccc3n2)cc1 [Example 91]
TGF-β
  inhibition at 3 µM: 66%
  inhibition at 10 µM: 73%

## CNC(=O)c1cc(Cl)ccc1/C=C/Cn1cccc1C(=O)c1ccc(C)cc1 [Example 117]
TGF-β
  inhibition at 3 µM: 71%
  inhibition at 10 µM: 83%

## Cc1ccc(C(=O)c2cccn2Cc2cnc3cc(C#N)ccc3n2)cc1 [Example 67]
TGF-β
  inhibition at 3 µM: 55%
  inhibition at 10 µM: 75%

## COc1ccc(C(=O)c2cc(C)cn2C/C=C/c2ccc(Cl)cc2C(=O)O)cc1 [Example 110]
[1]; 1.5 mg/kg oral, kidney, Table 3: normal rat 8.2 ± 0.8, vehicle 11.8 ± 0.6, P < 0.01 vs vehicle
  Hydroxyproline content: 10.1 ± 0.8 μg/mg protein
[1]; 5 mg/kg oral, kidney, Table 3: normal rat 8.2 ± 0.8, vehicle 11.8 ± 0.6, P < 0.01 vs vehicle
  Hydroxyproline content: 9.5 ± 0.8 μg/mg protein
[1]; 15 mg/kg oral, kidney, Table 3: normal rat 8.2 ± 0.8, vehicle 11.8 ± 0.6, P < 0.01 vs vehicle
  Hydroxyproline content: 9.7 ± 0.7 μg/mg protein
[1]; 50 mg/kg oral, kidney, Table 3: normal rat 8.2 ± 0.8, vehicle 11.8 ± 0.6, P < 0.01 vs vehicle
  Hydroxyproline content: 9.5 ± 0.6 μg/mg protein

## Cc1ccc(C(=O)c2cccn2Cc2cnc3ccccc3n2)cc1 [Example 64]
TGF-β
  inhibition at 3 µM: 43%
  inhibition at 10 µM: 75%

## Cc1ccc(C(=O)c2cccn2Cc2cnc3c(/C=C/C(=O)N(C)C)cccc3c2)cc1 [Example 61]
TGF-β
  inhibition at 3 µM: 15%
  inhibition at 10 µM: 86%

## Cc1ccc(C(=O)c2cccn2Cc2cnc3cccnc3n2)cc1 [Example 8]
TGF-β
  inhibition at 3 µM: 16%
  inhibition at 10 µM: 46%

## COC(=O)c1cc(Cl)ccc1/C=C/Cn1cc(C)cc1C(=O)c1ccc(O)cc1 [Example 111]
TGF-β
  inhibition at 3 µM: 90%
  inhibition at 10 µM: 118%

## Cc1ccc(C(=O)c2cccn2Cc2cnc3ncccc3n2)cc1 [Example 73]
TGF-β
  inhibition at 3 µM: 70%
  inhibition at 10 µM: 85%

## Cc1ccc(C(=O)c2cccn2Cc2cnc3c(C#N)cccc3n2)cc1 [Example 66]
TGF-β
  inhibition at 3 µM: 88%
  inhibition at 10 µM: 94%

## Cc1ccc(Cc2cccn2Cc2cnc3ccccc3c2Cl)cc1 [Example 25]
TGF-β
  inhibition at 3 µM: 6%
  inhibition at 10 µM: 74%

## Cc1ccc(C(=O)c2cc(C)cn2Cc2cnc3ccccc3c2)cc1 [Example 107]
TGF-β
  inhibition at 3 µM: 90%
  inhibition at 10 µM: 95%

## Cc1ccc(C(=O)c2cccn2Cc2cnc3cc(Cl)ccc3c2)cc1 [Example 33]
TGF-β
  inhibition at 3 µM: 74%
  inhibition at 10 µM: 91%

## Cc1ccc(C(O)c2cccn2Cc2cnc3ccccc3c2)cc1 (centres unmarked) [Example 20, [1-(3-quinolylmethyl)-1H-pyrrol-2-yl](4-methylphenyl)methanol]
TGF-β
  inhibition at 3 µM: 61%
  inhibition at 10 µM: 90%

## O=C(c1ccc(OCCN2CCOCC2)cc1)c1cccn1Cc1cnc2ccccc2c1 [Example 97]
TGF-β
  inhibition at 3 µM: 58%
  inhibition at 10 µM: 75%

## Cc1ccc(C(=O)c2cccn2Cc2cnc3nccnc3c2)cc1 [Example 105]
TGF-β
  inhibition at 3 µM: 14%
  inhibition at 10 µM: 48%

## C=CCOc1ccc(C(=O)c2cccn2Cc2cnc3ccccc3c2)cc1 [Example 10]
TGF-β
  inhibition at 3 µM: 63%
  inhibition at 10 µM: 86%

## Cc1ccc(C(=O)c2cccn2Cc2ccnc3ccccc23)cc1 [Example 3]
TGF-β
  inhibition at 3 µM: 25%
  inhibition at 10 µM: 38%

## Cc1ccc(C(=O)c2cccn2C/C=C/c2ccc(Cl)cc2C(=O)NS(C)(=O)=O)cc1 [Example 115]
TGF-β
  inhibition at 3 µM: 46%
  inhibition at 10 µM: 56%

## Cc1ccc(C(=O)c2cccn2C/C=C/c2ccccc2C(=O)O)cc1 [Example 19]
TGF-β
  inhibition at 3 µM: 51%
  inhibition at 10 µM: 72%

## Cc1ccc(C(=O)c2cccn2Cc2cnc3ccccc3c2)cc1 [Example 2]
TGF-β
  inhibition at 3 µM: 33%
  inhibition at 10 µM: 61%

## Cc1ccc(Cc2cccn2Cc2ccc3ccccc3n2)cc1 [Example 5]
TGF-β
  inhibition at 3 µM: 6%
  inhibition at 10 µM: 51%

## Cc1ccc(S(=O)(=O)n2cccc2C(O)c2cnc3ccccc3c2)cc1 (centres unmarked) [Example 6, (1-p-toluenesulfonyl-1H-pyrrol-2-yl)(3-quinolyl)methanol]
TGF-β
  inhibition at 3 µM: 66%
  inhibition at 10 µM: 88%

## Cc1ccc(C(=O)c2cccn2Cc2cnc3cccc(C(N)=O)c3c2)cc1 [Example 31]
TGF-β
  inhibition at 3 µM: 34%
  inhibition at 10 µM: 38%

## Cc1ccc(C(=O)c2cccn2Cc2cnc3ccccc3c2)cc1OCC(O)CO (centres unmarked) [Example 83]
TGF-β
  inhibition at 3 µM: 42%
  inhibition at 10 µM: 47%

## COC(=O)c1cc(Cl)ccc1/C=C/Cn1cccc1C(=O)c1ccc(O)cc1 [Example 103]
TGF-β
  inhibition at 3 µM: 55%
  inhibition at 10 µM: 90%

## Cc1ccc(C(=O)c2cc(C=O)cn2C/C=C/c2ccc(Cl)cc2C(=O)O)cc1 [Example 112]
TGF-β
  inhibition at 3 µM: 23%
  inhibition at 10 µM: 73%

## Cc1ccc(C(=O)c2cccn2Cc2cnc3cccc(C(=O)O)c3c2)cc1 [Example 43]
TGF-β
  inhibition at 3 µM: 31%
  inhibition at 10 µM: 66%

## CN(C)C(=O)c1ccc(C(=O)c2cccn2Cc2cnc3ccccc3c2)cc1 [Example 76]
TGF-β
  inhibition at 3 µM: 56%
  inhibition at 10 µM: 58%

## Cc1ccc(C(=O)c2cccn2Cc2cnc3c(C#N)cccc3c2)cc1 [Example 38]
TGF-β
  inhibition at 3 µM: 51%
  inhibition at 10 µM: 40%

## Cc1ccc(Cn2cccc2Cc2cnc3ccccc3c2)cc1 [Example 7, 1-(4-methylbenzyl)-2-(3-quinolylmethyl)-1H-pyrrole]
TGF-β
  inhibition at 3 µM: 44%
  inhibition at 10 µM: 78%

## O=C(c1ccc(O)cc1)c1cccn1Cc1cnc2ccccc2c1 [Example 14]
TGF-β
  inhibition at 3 µM: 40%
  inhibition at 10 µM: 56%
[1]; 150 mg/kg oral once a day, right kidney, Table 2: normal rat 6.7 ± 1.6, vehicle 8.7 ± 2.0, P < 0.05 vs vehicle
  Hydroxyproline content: 6.3 ± 1.3 μg/mg protein

## Cc1ccc(C(=O)c2cccn2C/C=C/c2ccc(Cl)cc2C(=O)O)cc1 [Example 9]
TGF-β
  inhibition at 3 µM: 88%
  inhibition at 10 µM: 91%
[1]; 15 mg/kg oral once a day, right kidney, Table 2: normal rat 6.7 ± 1.6, vehicle 8.7 ± 2.0, mean ± SD, n=8
  Hydroxyproline content: 7.2 ± 2.1 μg/mg protein
